Assay results as given in patent US8741911B2, “Raf inhibitor compounds” (Eli Lilly and Company, priority 2012, dated 2014).
Where two headings read alike, the source gives them in different places.

Tests used:
A375 = experiment: CellTiter-Glo proliferation and viability assay; type: cell-based; settings: Homo sapiens
RKO = experiment: CellTiter-Glo proliferation and viability assay; type: cell-based; settings: Homo sapiens
SiHa = experiment: CellTiter-Glo proliferation and viability assay; type: cell-based; settings: Homo sapiens
786-0 = experiment: CellTiter-Glo proliferation and viability assay; type: cell-based; settings: Homo sapiens
NOMO-1 = experiment: CellTiter-Glo proliferation and viability assay; type: cell-based; settings: Homo sapiens, read-out: Abs IC50
PC-3 = experiment: CellTiter-Glo proliferation and viability assay; type: cell-based; settings: Homo sapiens
SK-Mel-28 = experiment: CellTiter-Glo proliferation and viability assay; type: cell-based; settings: Homo sapiens
A375 cells = experiment: CellTiter-Blue A375 cell proliferation assay; type: cell-based; settings: Homo sapiens, A-375, read-out: Cell Proliferation Inhibition IC50
Method: Collection (ATCC, Manassas, Va.). Briefly, cells are grown in DMEM High Glucose supplemented with 10% characterized fetal bovine serum (Invitrogen, Carlsbad, Calif.) and 1% Penicillin/Streptomycin/L-Glutamine at 37 degrees Celsius, 5% CO2, and 95% humidity. Cells are allowed to expand until reaching 70-95% confluency at which point they are subcultured or harvested for assay use. A serial dilution of test compound is dispensed into a 384-well black clear bottom plate in triplicate. Six hundred twenty-five cells are added per well in 50 μL complete growth medium in the 384-well plate. Plates are incubated for 67 hours at 37 degrees Celsius, 5% CO2, and 95% humidity. At the end of the incubation period, 10 μL of a 440 μM solution of resazurin (Sigma, St. Louis, Mo.) in PBS is added to each well of the plate and plates are incubated for an additional 5 hours at 37 degrees Celsius, 5% CO2, and 95% humidity. Plates are read on a Synergy2 reader (Biotek, Winooski, Vt.) using an excitation of 540 nm and an emission of 600 nm. Data is analyzed using Prism software (Graphpad, San Diego, Calif.) to calculate IC50 values.
The A375, HT-29, and Colo-205 cells (ATCC) harbor a V600E mutation.

M059K = experiment: CellTiter-Glo proliferation and viability assay; type: cell-based; settings: Homo sapiens
Calu-6 = experiment: CellTiter-Glo proliferation and viability assay; type: cell-based; settings: Homo sapiens
[1] = tested on: HCT-116 K-Ras mutant B-Raf wild type xenograft; experiment: HCT-116 xenograft tumor model, efficacy; type: in vivo, rat; settings: nude rats, oral twice a day 30 mg/kg for 21 days
Method: (§1) Briefly, 10×10^6 cells (A375) or 5×10^6 cells (HCT-116) in a 1:1 medium and matrigel mix (0.2 mL total volume) are implanted by subcutaneous injection in the hind leg of nude female rats (NIH model No. NIHRNU-M from Taconic). A total of 8 rats in each group are used for the efficacy study, and a total of 3-4 rats in each group are used for a pharmacodynamic study. The Eli Lilly and Company Animal Care and Use Committee approved all the experimental protocols. […] Tumor growth and body weight are monitored over time to evaluate activity and signs of toxicity. Bidimensional measurements of tumors are performed twice a week and tumor volumes are calculated based on mid-axis length and mid-axis width. Tumor volume data are transformed to a log scale to equalize variance across time and treatment groups. The log volume data are analyzed with a two-way repeated measures analysis of variance by time and treatment using the MIXED® procedures in SAS® software (version 8.2). The correlation model for the repeated measures is spatial power. Treated groups are compared to the control group at each time point. The MIXED® procedure is also used separately for each treatment group to calculate adjusted means and standard errors at each time point. […]

[2] = tested on: phospho-MEK and phospho-ERK in HCT-116 cells harboring B-Raf wild type and K-Ras mutation; experiment: Immunoblotting (Western Blot) analysis, paradoxical pathway activation; type: cell-based, human
Method: (§2) Testing is carried out at doses of 0, and 11 serial dilutions ranging from 0.17 to 10000 nM. Protein lysates are generated by treatment of the cells with RIPA lysis buffer from Millipore. Western blotting analysis is performed substantially as described in Yadav et al, Molecular Carcinogenesis, 2011, 50: 346-52. Briefly, SDS-PAGE is performed on cell lysates containing 20 ug of total protein using 4-20% Novex® tri-glycine gradient gels (Invitrogen). Protein is transferred onto […] nitrocellulose membranes using NuPAGE® Transfer Buffer (Invitrogen) and 10% methanol at 100 V, 4° C. for 1 hr. Generally, the primary antibody is used at 1:1000 dilution, and secondary antibody at 1:20000 dilution. Proteins are detected using the Odyssey Infrared Imaging System (Li-COR Biosciences). Antibodies against ERK1/2, phospho-ERK1/2, phospho-MEK1/2, and actin are obtained from Cell Signaling Technology.
Testing is carried out at doses of 0, and 11 serial dilutions ranging from 0.17 to 10000 nM. The phospho-MEK and phospho-ERK activities were evaluated by Immunoblotting (Western Blot) analysis.

NCI-H1299 = experiment: CellTiter-Glo proliferation and viability assay; type: cell-based; settings: Homo sapiens
[3] = tested on: phospho-MEK and phospho-ERK in SK-MeI-2 cells; experiment: Immunoblotting (Western Blot) analysis of phospho-MEK and phospho-ERK; type: cell-based, human; settings: SK-MeI-2, Western Blot
Method: N-Ras mutations B-Raf wild type leads to MAPK activation through Raf proteins, particularly C-Raf.
as §2

[4] = tested on: phospho-MEK and phospho-ERK in A375 xenograft; experiment: A375 xenograft single dose pharmacodynamic study; type: in vivo, rat; settings: two hours post dose, Western Blot
Method: as §1

HT-1080 = experiment: CellTiter-Glo proliferation and viability assay; type: cell-based; settings: Homo sapiens
LN 229 = experiment: CellTiter-Glo proliferation and viability assay; type: cell-based; settings: Homo sapiens

IC50 (A375; A-375, A375, B-Raf V600E, melanoma): 9.2 nM
IC50 (786-0; read-out: Abs IC50): > 20 nM
IC50 (786-0; read-out: Rel IC50): 4.58 nM
IC50 (PC-3; read-out: Abs IC50): > 20 nM
IC50 (PC-3; read-out: Rel IC50): > 20 nM
IC50 (SK-Mel-28; SK-MEL-28, read-out: Abs IC50): 0.04 nM
IC50 (SK-Mel-28; SK-MEL-28, read-out: Rel IC50): 0.03 nM
IC50 (SK-Mel-28; SK-Mel-28, B-Raf V600E, melanoma, CellTiter-Glo, read-out: IC50): 29 nM
IC50 (A375 cells): 9 nM
IC50 (Calu-6; read-out: Abs IC50): 0.24 nM
IC50 (Calu-6; read-out: Rel IC50): 0.22 nM
IC50 (NCI-H1299; read-out: Abs IC50): 0.91 nM
IC50 (NCI-H1299; read-out: Rel IC50): 0.14 nM
IC50 (HT-1080; read-out: Abs IC50): 0.98 nM
IC50 (HT-1080; read-out: Rel IC50): 0.5 nM
SMILES: CNc1ncc2cc(-c3cc(NC(=O)NCCC(C)(C)C)c(F)cc3C)c(C)nc2n1 [Example 1, 1-(3,3-Dimethylbutyl)-3-(2-fluoro-4-methyl-5-(7-methyl-2-(methylamino)pyrido[2,3-d]pyrimidin-6-yl)phenyl)urea]
IC50 (A375; A-375, parental A375 B-Raf V600E cells, comparison with A375res): 11 nM
IC50 (RKO; read-out: Abs IC50): 4.92 nM
IC50 (RKO; read-out: Rel IC50): 0.26 nM
IC50 (SiHa; read-out: Abs IC50): > 20 nM
IC50 (SiHa; read-out: Rel IC50): > 20 nM
IC50 (NOMO-1): 2.63 nM
IC50 (M059K; read-out: Abs IC50): 15.1 nM
IC50 (M059K; read-out: Rel IC50): 1.01 nM
tumor growth [1]: statistically significant tumor growth inhibition
paradoxical pathway activation ([2]; HCT-116, B-Raf wild type and K-Ras mutation): minimal paradoxical pathway activation
doses that substantially eliminate phospho-ERK signal ([2]; HCT-116, Western Blot): above 41 nM
dose at which phospho-ERK activity is substantially eliminated [3]: 370 nM
phospho-MEK and phospho-ERK inhibition ([3]; 0.17 to 10000 nM): dose dependent phospho-MEK and phospho-ERK inhibition
phospho-MEK and phospho-ERK activities, PD effect ([4]; single dose 25 mg/kg): almost completely eliminated
phospho-MEK and phospho-ERK, PD effect ([4]; single dose 3.125 to 50 mg/kg): inhibition was observed in all dose groups
IC50 (LN 229; read-out: Abs IC50): 1.22 nM
IC50 (LN 229; read-out: Rel IC50): 1.08 nM
